In patent publication US9403802B2, “Heterocyclic compound and use therefor” (Takeda Pharmaceutical Company Limited, priority 2012, dated 2016):
Read-outs that look alike come from different tables or passages of the source.

Key:
[1] = Central migration (Kp value) measurement test; type: in vivo; conditions: male, Jcl ICR, mouse, brain/plasma, mice, ratio of intracerebral (μg/g) to plasma (μg/mL) concentration; for Kp at 1 h: po, 1 mg/kg, 1 mg/10 mL/kg
Method: A. Compounds of Examples 6 and 10 (Intravenous Administration: i.v.) […]
animal: male Jcl ICR mice 7-week-old n=3 […]
administration conditions: intravenous administration 0.20 mg/l mL/kg (4 compounds/cassette administration) administration medium: N,N-dimethylacetamide (DMA)/1,3-Butanediol (1:1) sample: plasma, brain (homogenate was prepared by adding 4-fold amount of saline) plasma sampling time: 0.25 hr brain sampling time: 0.25 hr […]
animal: male Jcl ICR mice 8-week-old n=3 […]
administration medium: DMA/1,3-Butanediol (1:1) […]
plasma sampling time: 0.5 hr brain sampling time: 0.5 hr […]
column: Shimadzu Shim-pack XR-ODS (2.2 μm, 2.0×30 mm) mobile phase A: 10 mmol/L ammonium formate/formic acid (100:0.2, v/v) mobile phase B: acetonitrile/formic acid (100:0.2, v/v) […]
column temperature: 50° C. sample injection volume: 1 μL (Example 6), 2 μL (Example 10) plasma pre-treatment conditions: A standard solution dissolution solvent (DMSO) or a standard solution (5 μL) was added to a sample (50 μL). Acetonitrile (150 μL) containing the internal standard substance was added, and the mixture was vigorously stirred and centrifuged at 5250 rpm. A dilution solvent (160 μL) was added to the centrifuged supernatant (60 μL). The solution (40 μL) was taken, and the dilution solvent (160 μL) was added to give a sample solution for compound plasma concentration measurement (mobile phase A:mobile phase B=7:3 (v/v) was used as the dilution solvent). brain pre-treatment conditions: The standard solution dissolution solvent (DMSO) or standard solution (5 μL) was added to a sample (50 μL). Acetonitrile (150 μL) containing the internal standard substance was added, and the mixture was vigorously stirred, and centrifuged at 5250 rpm. A dilution solvent (160 μL) was added to the centrifuged supernatant (60 μL). The solution (40 μL) was taken, and the dilution solvent (160 μL) was added to give a sample solution for intracerebral compound concentration measurement (mobile phase A:mobile phase B=7:3 (v/v) was used as the dilution solvent). B. Compounds of Examples 92 and 94 (Oral Administration: p.o.) animal: male Jcl ICR mice 10-week-old n=3 feeding: nonfasting administration conditions: oral administration 1 mg/10 mL/kg (5 compounds/cassette administration) administration medium: 0.5% methylcellulose solution sample: plasma, brain (homogenate was prepared by adding 4-fold amount of saline) plasma sampling time: 1 hr brain sampling time: 1 hr HPLC Analysis Conditions column: Shimadzu Shim-pack XR-ODS (2.2 μm, 2.0×30 mm) mobile phase A: 10 mmol/L ammonium formate/formic acid (100:0.2, v/v) mobile phase B: acetonitrile/formic acid (100:0.2, v/v) flow rate: 0.7 mL/min. column temperature: 50° C. sample injection volume: 1 μL […]

[2] = biological target: T1, human M1 receptor (hCHRM1) (Homo sapiens, UniProt P11229); test: Measurement of cholinergic muscarinic M1 receptor positive allosteric modulator (M1PAM) activity, calcium fluorescence (FLIPRtetra); type: cell-based; conditions: for activity (%) at 10 μM: test compound 10 μM with acetylcholine at EC20 (final 0.6 nM), 100% = acetylcholine 1 μM, 0% = DMSO
T1 construct: expressed in transfected cells; host or cells: CHO-K1
T1 sequence (P11229 1-460): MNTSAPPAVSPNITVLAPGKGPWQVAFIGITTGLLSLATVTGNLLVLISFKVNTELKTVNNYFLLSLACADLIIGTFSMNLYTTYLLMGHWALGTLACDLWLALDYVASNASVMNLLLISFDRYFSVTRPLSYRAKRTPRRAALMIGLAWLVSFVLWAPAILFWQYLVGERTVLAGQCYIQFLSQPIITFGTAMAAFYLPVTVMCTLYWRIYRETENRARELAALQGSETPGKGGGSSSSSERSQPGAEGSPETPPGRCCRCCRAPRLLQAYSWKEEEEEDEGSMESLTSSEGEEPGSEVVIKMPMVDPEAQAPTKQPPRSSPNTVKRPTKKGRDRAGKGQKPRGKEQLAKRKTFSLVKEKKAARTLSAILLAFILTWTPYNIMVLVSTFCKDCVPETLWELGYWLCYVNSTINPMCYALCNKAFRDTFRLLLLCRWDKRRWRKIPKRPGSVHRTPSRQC
Method: The activity of a test compound in the presence of acetylcholine at EC20 concentration (final concentration 0.6 nM), which affords an action corresponding to 20% of the maximum activity, was measured as M1PAM activity. The method is as follows. CHO-K1 cells forcibly expressing a human M1 receptor (hCHRM1) were plated on a 384-well black clear bottom plate (BD Falcon) at 5,000 cells/well, and cultured in an incubator at 37° C., 5% CO2 for 1 day. The medium in the cell plate was removed, and assay buffer A (Recording medium (DOJINDO LABORATORIES), 0.1% bovine serum albumin (BSA) (Wako Pure Chemical Industries, Ltd.), 2.5 μg/mL Fluo-4 AM (DOJINDO LABORATORIES), 0.08% Pluronic F127 (DOJINDO LABORATORIES), 1.25 mM probenecid (DOJINDO LABORATORIES)) containing a calcium indicator was added at 30 μL/well. The cells were left standing in the incubator at 37° C., 5% CO2 for 30 min, and further left standing at room temperature for 30 min. A test compound prepared by diluting with assay buffer B (HBSS (Invitrogen), 20 mM HEPES (Invitrogen), 0.1% BSA) containing 2.4 nM acetylcholine was added at 10 μL/well, and the fluorescence was measured by FLIPRtetra (Molecular Devices) for 1 min every 1 second. With the definition that the amount of change in the fluorescence on addition of acetylcholine (final concentration 1 μM) is 100% and that on addition of DMSO instead of a test compound is 0%, the activity (%) of the test compound and the inflection point in the concentration-dependent curve of the test compound were calculated as IP values.

[3] = inflection point of the concentration-dependent curve, with acetylcholine at EC20 (final 0.6 nM), CHO-K1 cells expressing hCHRM1, read-out: IP value

EC50 [2, 3] [nM] | SMILES | Kp at 0.5 h ([1]; iv, 0.2 mg/kg, 0.2 mg/1 mL/kg, sampling time 0.5 hr) | EC50 [2] [nM] | activity (%) at 10 μM ([2]; CHO-K1 cells expressing hCHRM1) [%] | Kp at 1 h [1] | Kp at 0.25 h ([1]; iv, 0.2 mg/kg, 0.2 mg/1 mL/kg, sampling time 0.25 hr)
 | COc1ccc(Cn2cc(C(=O)N[C@H]3CCCC[C@@H]3O)c(=O)c3c(F)ccc(F)c32)cc1 (racemic) [Example 10, 5,8-difluoro-N-[(1,2-trans)-2-hydroxycyclohexyl]-1-(4-methoxybenzyl)-4-oxo-1,4-dihydroquinoline-3-carboxamide] | 0.33 | 55 | 103 |  | 
 | Cc1nn(C)cc1-c1ccc(Cn2cc(C(=O)N[C@H]3CCC[C@@H]3O)c(=O)c3ccccc32)cc1 (racemic) [Example 94, 1-[4-(1,3-dimethyl-1H-pyrazol-4-yl)benzyl]-N-[(1,2-trans)-2-hydroxycyclopentyl]-4-oxo-1,4-dihydroquinoline-3-carboxamide] |  | 8.5 | 95 | 0.03 | 
 | COc1ccc(Cn2cc(C(=O)N[C@H]3CCOC[C@@H]3O)c(=O)c3c(F)ccc(F)c32)cc1 (racemic) [Example 6, 1,5-anhydro-2,3-dideoxy-3-({[5,8-difluoro-1-(4-methoxybenzyl)-4-oxo-1,4-dihydroquinolin-3-yl]carbonyl}amino)-DL-threo-pentitol] |  | 16 | 98 |  | 0.1
 | O=C(N[C@H]1CCC[C@@H]1O)c1cn(Cc2ccc(-n3cccn3)cc2)c2c(F)cccc2c1=O (racemic) [Example 92, 8-fluoro-N-[(1,2-trans)-2-hydroxycyclopentyl]-4-oxo-1-[4-(1H-pyrazol-1-yl)benzyl]-1,4-dihydroquinoline-3-carboxamide] |  | 55 | 104 | 0.16 | 
 | O=C(N[C@H]1CCCC[C@@H]1O)c1cn(Cc2ccc(-n3cccn3)cc2)c2c(F)cccc2c1=O (racemic) [Example 80, 8-fluoro-N-[(1,2-trans)-2-hydroxycyclohexyl]-4-oxo-1-[4-(1H-pyrazol-1-yl)benzyl]-1,4-dihydroquinoline-3-carboxamide] |  | 21 | 92 |  | 
7.7 | NC(=O)c1ccc(Cn2nc(C(=O)N[C@H]3CCCC[C@@H]3O)c(=O)c3ccccc32)cc1 (racemic) [Example 75, 1-(4-carbamoylbenzyl)-N-[(1,2-trans)-2-hydroxycyclohexyl]-4-oxo-1,4-dihydrocinnoline-3-carboxamide] |  |  | 99 |  | 
1900 | COc1ccc(Cn2nc(C(=O)N[C@@H]3CCCC[C@H]3O)c(=O)c3ccccc32)cc1 [Example 52, N-[(1R,2R)-2-hydroxycyclohexyl]-1-(4-methoxybenzyl)-4-oxo-1,4-dihydrocinnoline-3-carboxamide] |  |  | 87 |  | 
